# Assay results taken from patent US10993983B2, “Cyclic peptide epitopes and small-molecule mimics for inducing autophagy” (TRUSTEES OF TUFTS COLLEGE, priority 2016, dated 2021).
# “Also recorded” adds a separate entry of the source. Marks after values point to notes of the source that are not given here. Bridges are numbered along the chain shown (N, C = ends). Where no end group is shown, it is not given here. [ ]: non-standard residue; d: D form. The star is where a group is joined. c(FΦRRRRE) = cyclic peptide with F and E termini bonded, Φ = L-2-naphthylalanine; cyanopropanyl = 3-cyanopropanyl N-terminal cap, N#CCCC*; Nicotinoyl = O=C(c1cccnc1)*; Hexanoyl = CCCCCC(=O)*; Bz = O=C(c1ccccc1)*
# What was measured:
# Format in all cases: cell-based
# HeLa cells = experiment: Autophagy induction judged by p62 and LC3 immunoblots together; details: HeLa cells; for autophagy induction, result in words: p62 and LC3 immunoblots; for concentration at which autophagy induction (p62 degradation and LC3 lipidation) was observed: immunoblot, 3 hour treatment
# Experimental: This 10-mer sequence was substituted with various thiol-containing amino acids at various positions, and then cross-linked with various linkers as described above (FIG. 5, a and FIG. 6).
# (§1) Cells were treated with peptide in OPTI-MEM (Thermo Scientific) acidified with 0.15% (v/v) 6N HCl for 3 hour. Cells were rinsed with Dulbecco's phosphate buffered saline (PBS) and lysed in lysis buffer (20 mM HEPES, 150 mM NaCl, 1 mM EDTA, 1% Triton X-100, protease inhibitor cocktail (Roche) on ice for 1 hour. Cell lysates were centrifuged at 16,000 g for 10 min at 4° C. and analyzed by SDS-PAGE and transferred to PVDF membranes. The membranes were blocked 5% non-fat dry milk (NFDM) in PBST (PBS+0.05% Tween-20) for 1 hour, then incubated overnight at 4° C. with primary antibody in 5% NFDM in PBST. The blots were washed with PBST and incubated with HRP-conjugated secondary antibodies diluted in 5% NFDM in PBST for 1 hour at room temperature. Membranes were washed with PBST and visualized with SuperSignal West Pico Chemiluminescent Substrate (Thermo Scientific). Semi-quantitative results were obtained by noting the lowest concentration at which both p62 degradation and LC3-I to LC3-II conversion were observed.
# (SEQ ID NO: 16)-Sequence. […] The N-terminus was capped with an acetyl group while the C terminus was capped with a —C(O)—NH2 group. The activity reported is a summation of results from both the p62 degradation assay and the LC3 marker assay.
# p62 = p62 degradation assay (p62/actin immunoblot); design: key: −: activity not reported; 0: decreased vs. WT; +: similar to WT; ++: modest increase vs. WT; +++: significant increase vs. WT; details: for Activity (μM) 10, p62/actin assay activity: 10 μM; for Activity (μM) 20, p62/actin assay activity: 20 μM; for Activity (μM) 30, p62/actin assay activity: 30 μM; for Activity (μM) 50, p62/actin assay activity: 50 μM; for Activity (μM) 100, p62/actin assay activity: 100 μM; for Activity (μM) 10, starred cell, p62/actin assay activity / Activity (μM) 30, starred cell, p62/actin assay activity: Table 8; for Activity (μM) 10, starred cell, p62/actin assay activity: 10 μM marked * (footnote: data taken at 20 instead of 30 μM); for Activity (μM) 30, starred cell, p62/actin assay activity: *Data taken at 20 instead of 30 μM
# Experimental: as §1
# (§2) Compounds 1-10 were evaluated using the assays described in Examples 4 and 5. Activity for each compound was measured in the p62 degradation assay and the LC3 marker assay as described herein. The activity at each concentration of peptide is given as, for example, (0/+) where 0 would be the p62/actin assay activity and + would be the LC3 assay activity.
# LC3 = LC3 marker assay (LC3-I to LC3-II conversion immunoblot); design: key: −: activity not reported; 0: decreased vs. WT; +: similar to WT; ++: modest increase vs. WT; +++: significant increase vs. WT; details: for Activity (μM) 10, LC3 assay activity: 10 μM; for Activity (μM) 20, LC3 assay activity: 20 μM; for Activity (μM) 30, LC3 assay activity: 30 μM; for Activity (μM) 50, LC3 assay activity: 50 μM; for Activity (μM) 100, LC3 assay activity: 100 μM; for Activity (μM) 10, starred cell, LC3 assay activity / Activity (μM) 30, starred cell, LC3 assay activity: Table 8; for Activity (μM) 10, starred cell, LC3 assay activity: 10 μM marked * (footnote: data taken at 20 instead of 30 μM); for Activity (μM) 30, starred cell, LC3 assay activity: *Data taken at 20 instead of 30 μM
# Experimental: as §1, §2
# [1] = Table 3, control vehicle, first symbol of cell
# [2] = Table 3, control vehicle, first symbol
# [3] = Table 8, control compound T25, first symbol
# [4] = Table 3, control vehicle, second symbol of cell
# [5] = Table 3, control vehicle, second symbol
# [6] = Table 8, control compound T25, second symbol
substance,measurement,setting,value
(acetyl)-VcNAcFHIWH (Ac-V[dC]NA[dC]FHIWH; linker 2-5 via ortho‑xylene (inferred); not fully specified (C-terminus); printed as (acetyl)-VcNAcFHIWH) [Ac-DD5-o],"autophagy induction, result in words",HeLa cells,almost no autophagy-inducing activity
(benzo)-VcNAcFHIWH (Bz-V[dC]NA[dC]FHIWH; linker 2-5 via ortho‑xylene (inferred); not fully specified (C-terminus); printed as (benzo)-VcNAcFHIWH) [benzo-DD5-o],concentration at which autophagy induction (p62 degradation and LC3 lipidation) was observed,HeLa cells,50 µM
same,"autophagy induction, result in words",HeLa cells,induced autophagy to a slightly lesser extent than DD5-o
(cyano)-VcNAcFHIWH (cyanopropanyl-V[dC]NA[dC]FHIWH; linker 2-5 via ortho‑xylene (inferred); not fully specified (C-terminus); printed as (cyano)-VcNAcFHIWH) [cyano-DD5-o],"autophagy induction, result in words",HeLa cells,"induced autophagy, but to a somewhat lesser extent than DD5-o"
(free amine)-VcNAcFHIWH (H-V[dC]NA[dC]FHIWH; linker 2-5 via ortho‑xylene (inferred); not fully specified (C-terminus); printed as VcNAcFHIWH) [Compound H2N-DD5-o],"autophagy induction, result in words",HeLa cells,almost no autophagy-inducing activity
(hexano)-VcNAcFHIWH (Hexanoyl-V[dC]NA[dC]FHIWH; linker 2-5 via ortho‑xylene (inferred); not fully specified (C-terminus); printed as (hexano)-VcNAcFHIWH) [hexano-DD5-o],concentration at which autophagy induction (p62 degradation and LC3 lipidation) was observed,HeLa cells,50 µM
same,"autophagy induction, result in words",HeLa cells,"induced autophagy, but to a somewhat lesser extent than DD5-o"
(hexyno)-VcNAcFHIWH (hexynoyl-V[dC]NA[dC]FHIWH; linker 2-5 via ortho‑xylene (inferred); not fully specified (C-terminus); printed as (hexyno)-VcNAcFHIWH) [hexyno-DD5-o],"autophagy induction, result in words",HeLa cells,"induced autophagy, but to a somewhat lesser extent than DD5-o"
(nicot)-VcNAcFHIWH (Nicotinoyl-V[dC]NA[dC]FHIWH; linker 2-5 via ortho‑xylene (inferred); not fully specified (C-terminus); printed as (nicot)-VcNAcFHIWH) [nicot-DD5-o],"autophagy induction, result in words",HeLa cells; listed as nicotinic acid cap,showed no activity; also recorded: no activity was observed
(pa)-AcNAcFHIWH (pa-A[dC]NA[dC]FHIWH; linker 2-5 via ortho‑xylene (inferred)) [Val1Ala],"autophagy induction, result in words",HeLa cells,complete loss in activity
same,"autophagy induction, result in words",HeLa cells; listed as Vail,complete loss of activity
(pa)-VCNAcFHIWH (pa-VCNA[dC]FHIWH; linker 2-5 via ortho‑xylene (inferred)) [LD5-o],"autophagy induction, result in words",HeLa cells,mildly increased autophagy
"(pa)-VWNATFHIWH (not fully specified (N-terminus, C-terminus); printed as (pa)-VWNATFHIWH) [pa-10mer, no linker]",concentration at which autophagy induction (p62 degradation and LC3 lipidation) was observed,HeLa cells,100 µM
same,"autophagy induction, result in words",HeLa cells,barely detectable activity
"(pa)-VWNATFHIWHD (not fully specified (N-terminus, C-terminus); printed as (pa)-VWNATFHIWHD) [pa-11mer, no linker]","autophagy induction, result in words",HeLa cells,did not increase autophagic activity; also recorded: loss of activity
(pa)-VcAAcFHIWH (pa-V[dC]AA[dC]FHIWH; linker 2-5 via ortho‑xylene (inferred)) [Asn3Ala],"autophagy induction, result in words",HeLa cells,milder effects on activity
(pa)-VcNACFHIWH (pa-V[dC]NACFHIWH; linker 2-5 via ortho‑xylene (inferred)) [DL5-o],"autophagy induction, result in words",HeLa cells,mildly increased autophagy
(pa)-VcNATcHIWH (pa-V[dC]NAT[dC]HIWH; linker 2-6 via meta‑xylene (inferred)) [DD6-m],concentration at which autophagy induction (p62 degradation and LC3 lipidation) was observed,HeLa cells,100 µM
same,"autophagy induction, result in words",HeLa cells,capable of inducing autophagy
(pa)-VcNAcAHIWH (pa-V[dC]NA[dC]AHIWH; linker 2-5 via ortho‑xylene (inferred)) [Phe6Ala],"autophagy induction, result in words",HeLa cells,complete loss of activity; also recorded: complete loss in activity
"VWNATFHIWH (not fully specified (N-terminus, C-terminus)) [Compound 5, likely pa-10mer]","Activity (μM) 10, p62/actin assay activity",p62; [1],0/0
same,"Activity (μM) 20, p62/actin assay activity",p62; [2],0/0
same,"Activity (μM) 30, p62/actin assay activity",p62; [3],0/0
same,"Activity (μM) 50, p62/actin assay activity",p62; [2],0
same,"Activity (μM) 50, p62/actin assay activity",p62; [3],0/0
same,"Activity (μM) 100, p62/actin assay activity",p62; [2],+/+
same,"Activity (μM) 100, p62/actin assay activity",p62; [3],0/0
same,"Activity (μM) 10, starred cell, p62/actin assay activity",p62; first symbol,0/0*
same,"Activity (μM) 10, LC3 assay activity",LC3; [4],0/0
same,"Activity (μM) 20, LC3 assay activity",LC3; [5],0/0
same,"Activity (μM) 30, LC3 assay activity",LC3; [6],0/0
same,"Activity (μM) 50, LC3 assay activity",LC3; [5],+
same,"Activity (μM) 50, LC3 assay activity",LC3; [6],0/0
same,"Activity (μM) 100, LC3 assay activity",LC3; [5],+/+
same,"Activity (μM) 100, LC3 assay activity",LC3; [6],0/0
same,"Activity (μM) 10, starred cell, LC3 assay activity",LC3; second symbol,0/0*
"VWNATFHIWH (not fully specified (N-terminus, C-terminus)) [Compound 64]","Activity (μM) 10, p62/actin assay activity",p62; [3],0/0
same,"Activity (μM) 30, starred cell, p62/actin assay activity",p62; first symbol,0/0*
same,"Activity (μM) 10, LC3 assay activity",LC3; [6],0/0
same,"Activity (μM) 30, starred cell, LC3 assay activity",LC3; second symbol,0/0*
"VWNATFHIWHD (not fully specified (N-terminus, C-terminus)) [Compound 6, likely pa-11mer]","Activity (μM) 10, p62/actin assay activity",p62; [1],0/0
same,"Activity (μM) 20, p62/actin assay activity",p62; [2],0/0
same,"Activity (μM) 30, p62/actin assay activity",p62; [3],0/0
same,"Activity (μM) 50, p62/actin assay activity",p62; [2],0/0
same,"Activity (μM) 50, p62/actin assay activity",p62; [3],++
same,"Activity (μM) 100, p62/actin assay activity",p62; [2],0/0
same,"Activity (μM) 100, p62/actin assay activity",p62; [3],0/0
same,"Activity (μM) 10, starred cell, p62/actin assay activity",p62; first symbol,0/0*
same,"Activity (μM) 10, LC3 assay activity",LC3; [4],0/0
same,"Activity (μM) 20, LC3 assay activity",LC3; [5],0/0
same,"Activity (μM) 30, LC3 assay activity",LC3; [6],0/0
same,"Activity (μM) 50, LC3 assay activity",LC3; [5],0/0
same,"Activity (μM) 50, LC3 assay activity",LC3; [6],0
same,"Activity (μM) 100, LC3 assay activity",LC3; [5],0/0
same,"Activity (μM) 100, LC3 assay activity",LC3; [6],0/0
same,"Activity (μM) 10, starred cell, LC3 assay activity",LC3; second symbol,0/0*
VWNATFHIWHD [62] ({c(FΦRRRRE)}-VWNATFHIWHD; not fully specified; printed as R1 cyclic c(FΦRRRRE) attached) [Compound 62],"Activity (μM) 10, p62/actin assay activity",p62; [3],++
same,"Activity (μM) 30, starred cell, p62/actin assay activity",p62; first symbol,+++/+++*
same,"Activity (μM) 10, LC3 assay activity",LC3; [6],+++
same,"Activity (μM) 30, starred cell, LC3 assay activity",LC3; second symbol,+++/+++*
"VWNATFHIWHD [63] (not fully specified (N-terminus, C-terminus)) [Compound 63]","Activity (μM) 10, p62/actin assay activity",p62; [3],0
same,"Activity (μM) 30, starred cell, p62/actin assay activity",p62; first symbol,0
same,"Activity (μM) 10, LC3 assay activity",LC3; [6],+
same,"Activity (μM) 30, starred cell, LC3 assay activity",LC3; second symbol,+++
"YGRKKRRQRRRGGVWNATFHIWHD [7] (Ac-YGRKKRRQRRRGGVWNATFHIWHD-NH2) [Compound 7, likely Tat-11mer]","Activity (μM) 10, p62/actin assay activity",p62; [1],0
same,"Activity (μM) 20, p62/actin assay activity",p62; [2],+++/+++
same,"Activity (μM) 10, LC3 assay activity",LC3; [4],++
same,"Activity (μM) 20, LC3 assay activity",LC3; [5],+++/+++
"YGRKKRRQRRRGGVWNATFHIWHD [8] (not fully specified (N-terminus, C-terminus)) [Compound 8]","Activity (μM) 10, p62/actin assay activity",p62; [1],0
same,"Activity (μM) 20, p62/actin assay activity",p62; [2],0
same,"Activity (μM) 50, p62/actin assay activity",p62; [2],++
same,"Activity (μM) 10, LC3 assay activity",LC3; [4],+
same,"Activity (μM) 20, LC3 assay activity",LC3; [5],++
same,"Activity (μM) 50, LC3 assay activity",LC3; [5],+++
